Read-outs that look alike come from different tables or passages of the source.
Assays:
[1] = test system: A549; experiment: Cytotoxicity assay (MTT), A549 cell line; format: cell-based; conditions: 24 h
How it was run: (§1)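 Hep G2 and A549 cells were cultured 24 h at 37° C in RPM medium with test compounds at 50 μM and 12.5 μM. MTT was added for 0.5-2 h and formazan read at 490 nm. Growth value calculated as OD490 treated/OD490 nontreated ×100.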

[2] = test system: IL-8; experiment: Inhibition of IL-8 production by stimulated human peripheral blood leukocytes in vitro; format: cell-based; conditions: Homo sapiens, Leukocyte, read-out: Percentage of inhibition of IL-8 production
How it was run: (§2)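 Cytokines in supernatants measured by sandwich ELISA after overnight stimulation (2 μg/mL LPS, 1 μg/mL PMA or 120 μg/mL zymosan) of healthy-donor leukocytes pretreated 2 h with 10 or 50 μM compound. Percent inhibition calculated relative to stimulated cells lacking compound.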

[3] = test system: IL-6; experiment: Inhibition of IL-6 production by stimulated human peripheral blood leukocytes in vitro; format: cell-based; conditions: Homo sapiens, Leukocyte, read-out: Percentage of inhibition of IL-6 production
How it was run: as §2

[4] = test system: TNF-α; experiment: Lipopolysaccharide induced TNF-α production in Balb/cJ mice; format: in vivo; conditions: Mus musculus, ip, 1.5 h; 10 mg/kg intraperitoneally, 30 min before LPS; 90 min after LPS; read-out: % inhibition of TNF-α production (plasma)
[5] = test system: human peripheral blood mononuclear cells (PBMC); experiment: Effects on human T-cell proliferation in vitro (3H-thymidine incorporation); format: cell-based; conditions: Homo sapiens, PBMC, read-out: Percentage of inhibition of proliferation of stimulated PBMC
How it was run: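 Proliferation of human peripheral blood mononuclear cells (PBMC) was assessed in the presence of test compounds. During the final 18 h of culture each well received 1 μCi of ^3H-thymidine. Cells were then collected onto a 96-well filter with a multiple cell harvester, and ^3H-thymidine incorporation was counted on a TopCount NXT to give percentage inhibition of proliferation.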

[6] = test system: Hep G2; experiment: Cytotoxicity assay (MTT), Hep G2 cell line; format: cell-based; conditions: 24 h
How it was run: as §1

[7] = test system: TNF-α; experiment: Inhibition of TNF-α production by stimulated human peripheral blood leukocytes in vitro; format: cell-based; conditions: Homo sapiens, Leukocyte, read-out: Percentage of inhibition of TNF-α production
How it was run: as §2

[8] = test system: IL-1α; experiment: Inhibition of IL-1 production by stimulated human peripheral blood leukocytes in vitro; format: cell-based; conditions: Homo sapiens, Leukocyte, read-out: Percentage of inhibition of IL-1α production

Structure (SMILES)	Percentage of inhibition of cell growth ([1]; 12.5 μM) [%]	Percentage of inhibition of cell growth ([1]; 50 μM) [%]	inhibition at 10 µM ([2]; LPS-stimulated PBL) [%]	inhibition at 10 µM ([2]; PMA-stimulated PBL) [%]	inhibition at 10 µM ([2]; zymosan-stimulated PBL) [%]	inhibition at 50 µM ([2]; LPS-stimulated PBL) [%]	inhibition at 50 µM ([2]; PMA-stimulated PBL) [%]	inhibition at 50 µM ([2]; zymosan-stimulated PBL) [%]	inhibition at 10 µM ([3]; LPS-stimulated PBL) [%]	inhibition at 10 µM ([3]; PMA-stimulated PBL) [%]	inhibition at 10 µM ([3]; zymosan-stimulated PBL) [%]	inhibition at 50 µM ([3]; LPS-stimulated PBL) [%]	inhibition at 50 µM ([3]; PMA-stimulated PBL) [%]	inhibition at 50 µM ([3]; zymosan-stimulated PBL) [%]	inhibition in vivo at 10 mg/kg [4] [%]	Percentage of inhibition of cell growth ([6]; 12.5 μM) [%]	Percentage of inhibition of cell growth ([6]; 50 μM) [%]	inhibition at 10 µM ([7]; LPS-stimulated PBL) [%]	inhibition at 10 µM ([7]; PMA-stimulated PBL) [%]	inhibition at 10 µM ([7]; zymosan-stimulated PBL) [%]	further results
CC[C@H]1OC(=O)[C@H](C)[C@@H](O[C@H]2C[C@@](C)(OC)[C@@H](OC(=O)CCN(CC)CC)[C@H](C)O2)[C@H](C)[C@@H](O[C@@H]2O[C@H](C)C[C@H](N(C)C)[C@H]2O)[C@](C)(O)C[C@@H](C)CN(C)[C@H](C)[C@H]2OC(=O)O[C@@]21C [Example 1, 11,12-Carbonate-11,12-dideoxy-4″-O-(3-diethylamino-propionyl)-azithromycin]	0	3	0	0	29	97	100	100	10	0	29	94	96	100	64	0	15	54	0	88	inhibition at 10 µM ([5]; PHA): 95%; inhibition at 50 µM ([5]; PHA): 99%; inhibition at 10 µM ([5]; PMA + iono.): 90%; inhibition at 50 µM ([5]; PMA + iono.): 96%; inhibition at 50 µM ([7]; LPS-stimulated PBL): 100%; inhibition at 50 µM ([7]; PMA-stimulated PBL): 94%; inhibition at 50 µM ([7]; zymosan-stimulated PBL): 100%; inhibition at 10 µM ([8]; LPS-stimulated PBL): 67%; inhibition at 10 µM ([8]; PMA-stimulated PBL): 0%; inhibition at 10 µM ([8]; zymosan-stimulated PBL): 73%; inhibition at 50 µM ([8]; LPS-stimulated PBL): 93%; inhibition at 50 µM ([8]; PMA-stimulated PBL): 84%; inhibition at 50 µM ([8]; zymosan-stimulated PBL): 83%
CC[C@H]1OC(=O)[C@H](C)[C@@H](O[C@H]2C[C@@](C)(OC)[C@@H](OC(=O)CCN(C)C)[C@H](C)O2)[C@H](C)[C@@H](O[C@@H]2O[C@H](C)C[C@H](N(C)C)[C@H]2O)[C@](C)(OC)C[C@@H](C)C(=O)N[C@H](C)[C@@H](O)[C@]1(C)O [Example 12, 4″-O-(3-dimethylamino-propionyl)-6-O-methyl-9a-aza-9a-homoerythromycin A]	8	4	7	0	2	72	3	9	16	32	67	81	67	91	69	0	0	23	49	77	inhibition at 10 µM ([5]; PHA): 33%; inhibition at 50 µM ([5]; PHA): 99%; inhibition at 10 µM ([5]; PMA + iono.): 29%; inhibition at 50 µM ([5]; PMA + iono.): 96%; inhibition at 50 µM ([7]; LPS-stimulated PBL): 92%; inhibition at 50 µM ([7]; PMA-stimulated PBL): 97%; inhibition at 50 µM ([7]; zymosan-stimulated PBL): 97%; inhibition at 10 µM ([8]; LPS-stimulated PBL): 43%; inhibition at 10 µM ([8]; PMA-stimulated PBL): 45%; inhibition at 10 µM ([8]; zymosan-stimulated PBL): 88%; inhibition at 50 µM ([8]; LPS-stimulated PBL): 95%; inhibition at 50 µM ([8]; PMA-stimulated PBL): 90%; inhibition at 50 µM ([8]; zymosan-stimulated PBL): 100%
CC[C@H]1OC(=O)[C@H](C)[C@@H](O[C@H]2C[C@@](C)(OC)[C@@H](OC(=O)CCN(CC)CC)[C@H](C)O2)[C@H](C)[C@@H](O[C@@H]2O[C@H](C)C[C@H](NC)[C@H]2O)[C@](C)(OC)C[C@@H](C)C(=O)N[C@H](C)[C@@H](O)[C@]1(C)O [Example 54, 3′-N-Demethyl-4″-O-(3-diethylaminopropionyl)-6-O-methyl-9a-aza-9a-homoerythromycin A]	0	0	0	0	0	82	40	53	0	0	9	58	71	87	58	1	2	3	25	11	inhibition at 50 µM ([7]; LPS-stimulated PBL): 55%; inhibition at 50 µM ([7]; PMA-stimulated PBL): 96%; inhibition at 50 µM ([7]; zymosan-stimulated PBL): 92%; inhibition at 10 µM ([8]; LPS-stimulated PBL): 60%; inhibition at 10 µM ([8]; PMA-stimulated PBL): 62%; inhibition at 10 µM ([8]; zymosan-stimulated PBL): 56%; inhibition at 50 µM ([8]; LPS-stimulated PBL): 69%; inhibition at 50 µM ([8]; PMA-stimulated PBL): 97%; inhibition at 50 µM ([8]; zymosan-stimulated PBL): 98%

From US8080529B2, “Macrolides with anti-inflammatory activity” (Glaxo Group Limited, priority 2005, dated 2011)
